Test results as given in article PMC10384011, “m-Terphenylamines, Acting as Selective COX-1 Inhibitors, Block Microglia Inflammatory Response and Exert Neuroprotective Activity” (Molecules, 2023).

What was measured:
[1] = target: T1, human COX-2 (Homo sapiens, UniProt P35354); test: Cyclooxygenase colorimetric inhibitor screening assay, COX-2; format: biochemical; details: read-out: hCOX-2; for IC50: human COX-2, colorimetric kit; for inhibition at 50 µM: human COX-2, 50 µM;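 on all read-outs here: peroxidase activity of COX-2 followed colorimetrically through formation of oxidized TMPD at 590 nm, with arachidonic acid as substrate, compounds tested from 0.001 to 50 µM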
T1 construct: purchased Cayman Chemicals 701050
T1 sequence (P35354 18-604): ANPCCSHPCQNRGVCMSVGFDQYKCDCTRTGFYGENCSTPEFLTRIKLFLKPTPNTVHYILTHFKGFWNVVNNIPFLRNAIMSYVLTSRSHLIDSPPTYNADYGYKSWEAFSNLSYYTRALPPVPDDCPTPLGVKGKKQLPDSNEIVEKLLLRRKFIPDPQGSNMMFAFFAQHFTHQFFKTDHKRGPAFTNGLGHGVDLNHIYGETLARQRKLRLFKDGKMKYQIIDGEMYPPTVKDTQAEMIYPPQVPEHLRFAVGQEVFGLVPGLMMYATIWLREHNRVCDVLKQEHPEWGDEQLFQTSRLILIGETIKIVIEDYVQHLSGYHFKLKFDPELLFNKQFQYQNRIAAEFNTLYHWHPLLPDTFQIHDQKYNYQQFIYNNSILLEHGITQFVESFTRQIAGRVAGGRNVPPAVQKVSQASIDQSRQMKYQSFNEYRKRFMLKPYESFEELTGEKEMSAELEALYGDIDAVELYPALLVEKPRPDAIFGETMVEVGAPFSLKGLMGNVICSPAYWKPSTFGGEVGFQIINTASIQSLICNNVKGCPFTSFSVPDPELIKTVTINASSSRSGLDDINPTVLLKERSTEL
Experimental: (§1) Newly synthesized compounds were evaluated for their ability to inhibit ovine COX-1 or human COX-2 enzyme by measuring the extent (%) of enzyme activity inhibition at different concentrations (0.001, 0.01, 0.1, 1, 10, 50 μM). […] The assay kit measures the peroxidase component of COXs that is assayed colorimetrically by monitoring the appearance of oxidized N,N,N′,N′-tetramethyl-p-phenylenediamine (TMPD) a λ = 590 nm. […] Stock solutions of test compounds were dissolved in DMSO.

[2] = target: T2, ovine COX-1 (Ovis aries, UniProt P05979); test: Cyclooxygenase colorimetric inhibitor screening assay, COX-1; format: biochemical; details: for IC50: ovine COX-1, colorimetric kit, triplicate; for IC50 / inhibition at 50 µM: read-out: oCOX-1; for inhibition at 50 µM: % Inhibition at 50 µM (converted);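 on all read-outs here: COX peroxidase activity read colorimetrically as oxidized TMPD at 590 nm, arachidonic acid as substrate, inhibitors tested at 0.001–50 µM from DMSO stocks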
T2 construct: purchased Cayman Chemicals 701050
T2 sequence (P05979 25-600): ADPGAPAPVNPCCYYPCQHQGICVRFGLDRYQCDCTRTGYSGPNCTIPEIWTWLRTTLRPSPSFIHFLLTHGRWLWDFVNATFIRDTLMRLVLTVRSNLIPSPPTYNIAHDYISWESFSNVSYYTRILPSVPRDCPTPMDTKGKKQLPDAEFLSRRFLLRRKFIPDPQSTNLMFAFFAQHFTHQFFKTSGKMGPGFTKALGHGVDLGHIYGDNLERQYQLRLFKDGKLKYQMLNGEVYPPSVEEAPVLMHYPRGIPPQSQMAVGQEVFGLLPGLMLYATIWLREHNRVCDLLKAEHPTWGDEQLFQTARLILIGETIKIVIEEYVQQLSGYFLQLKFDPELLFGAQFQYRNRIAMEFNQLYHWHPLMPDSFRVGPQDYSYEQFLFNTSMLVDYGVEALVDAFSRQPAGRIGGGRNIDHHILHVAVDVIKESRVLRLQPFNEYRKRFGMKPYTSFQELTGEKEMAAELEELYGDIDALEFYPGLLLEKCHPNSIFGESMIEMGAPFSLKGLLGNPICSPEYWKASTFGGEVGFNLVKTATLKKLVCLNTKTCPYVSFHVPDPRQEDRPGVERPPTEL
Experimental: as §1

[3] = tested on: BV2 microglia cells; test: ROS production (H2DCFDA) in LPS-treated BV2 microglia; format: cell-based; details: 3 μM, LPS 1 μg/mL, 24 h
From the text: Activation of toll-like receptors (TLRs), particularly the TLR4 subtype, is closely associated with the production of reactive oxygen and nitrogen species that contribute to neuronal death in the CNS. In this connection, NADPH oxidase enzymes are the main ones responsible for ROS production induced by NF-κB nuclear translocation. For this reason, we decided to assess the ROS levels of BV2 microglia cells treated with LPS and the effect of our compounds under this toxicity protocol. To this end, the compounds, at different concentrations (3 μM of 3a, 3b, and 3d and 10 μM of 3c) were incubated with 1 μg/mL LPS for 24 h. After this period, ROS production was measured with the fluorescent probe H2DCFDA. Treatment with LPS increased by 1.75-fold the amount of ROS compared with control cells.
Cultures were seeded into flasks containing supplemented medium and kept at 37 °C in a humidified atmosphere of 5% CO2 and 95% air. For assays, BV-2 cells were subcultured in 48-well plates at a seeding density of 1 × 10^5 cells per well. Cells were treated with LPS (Sigma-Aldrich, Madrid, Spain) for 24 or 48 h before confluence in RPMI with 1% FBS.
To measure cellular ROS, we used the molecular probe 2′,7′-dichlorodihydrofluorescein diacetate (H2DCFDA). Glial cells were loaded with 5 µM H2DCFDA as it was previously described (Parada et al., 2015). Fluorescence was measured in a fluorescence microplate reader (FLUOstar Galaxy; BMG Labtech, Offenburg, Germany). Wavelengths of excitation and emission were 485 and 520 nm, respectively. The relative pixel intensity was measured in identical regions with (ImageJ 1.52a software, National Institutes of Health, Bethesda, MD, USA).

## O=C(Nc1cc(-c2ccc(Cl)cc2)cc(-c2ccc(Cl)cc2)c1)NC1CCCC1 [Compound 4d, 1-([4,4″-Dichloro-m-terphenyl]-5′-yl)-3-cyclopentylurea]
[1]
  IC50: > 50 µM
other
  melting point: 239 to 240 °C
[2]
  IC50: > 50 µM

## Nc1cc(-c2ccc(Cl)cc2)cc(-c2ccc(Cl)cc2)c1 [Compound 3d, 4,4″-Dichloro-5′-amino-m-terphenyl]
[1]
  IC50: > 50 µM
[3]
  ROS production induced by LPS: failed to decrease the levels of ROS
[2]; ovine COX-1, 50 µM
  inhibition at 50 µM: 36%

## Nc1cc(-c2ccccc2)cc(-c2ccccc2)c1C(=O)O [Compound 2a, 6-Amino-2,4-diphenylbenzoic acid]
[1]
  inhibition at 50 µM: 3%
other
  melting point: 162 to 163 °C
[2]; ovine COX-1, 50 µM
  inhibition at 50 µM: 32%

## O=C(Nc1cc(-c2ccccc2)cc(-c2ccccc2)c1)NC1CCCC1 [Compound 4a, 1-([m-Terphenyl]-5′-yl)-3-cyclopentyl urea]
[1]
  IC50: > 50 µM
[2]
  IC50: > 50 µM

## c1ccc(Nc2cc(-c3ccccc3)cc(-c3ccccc3)c2)cc1 [Compound 3g, 5′-Phenylamino-m-terphenyl]
[1]
  IC50: > 50 µM
[2]
  IC50: > 50 µM

## Cc1ccc(-c2cc(N)c(C(=O)O)c(-c3ccccc3)c2)cc1 [Compound 2b, 6-Amino-2-phenyl-4-(4-tolyl)benzoic acid]
[1]
  inhibition at 50 µM: 2%
[2]; ovine COX-1, 50 µM
  inhibition at 50 µM: 46%

## CCOC(=O)c1c(N)cc(-c2ccccc2)cc1-c1ccccc1 [Compound 1a, ethyl 6-amino-2,4-diphenylbenzoate]
[1]
  IC50: > 50 µM
[2]
  IC50: > 50 µM

## Nc1cc(-c2ccc(Cl)cc2)cc(-c2ccccc2)c1C(=O)O [Compound 2c, 6-Amino-2-phenyl-4-(4-chlorophenyl)benzoic acid]
[1]
  inhibition at 50 µM: 4%
other
  melting point: 229 to 230 °C
[2]
  IC50: > 50 µM

## COc1ccc(-c2noc(CC(=O)O)c2-c2ccc(OC)cc2)cc1 [Mofezolac, mofezolac, reference compound]
[1]
  inhibition at 50 µM: 42%
[2]; ovine COX-1, 50 µM
  inhibition at 50 µM: 100%

## O=C(O)c1c(Nc2ccccc2)cc(-c2ccccc2)cc1-c1ccccc1 [Compound 2g, 6-Phenylamino-2,4-diphenylbenzoic acid]
[1]
  inhibition at 50 µM: 13%
[2]; ovine COX-1, 50 µM
  inhibition at 50 µM: 7%

## ethyl 6-amino-2-(4-methoxyphenyl)-2-phenylbenzoate [Compound 1e]
[1]
  IC50: > 50 µM
[2]; ovine COX-1, 50 µM
  oCOX-1; % Inhibition at 50 µM: NM (9) %

## O=C(Nc1cc(-c2ccccc2)cc(-c2ccc(Cl)cc2)c1)NC1CCCC1 [Compound 4c, 1-([4-Chloro-m-terphenyl]-5′-yl)-3-cyclopentylurea]
[1]
  IC50: > 50 µM
other
  melting point: 203 to 204 °C
[2]
  IC50: > 50 µM

## Nc1cc(-c2ccc(Cl)cc2)cc(-c2ccc(Cl)cc2)c1C(=O)O [Compound 2d, 6-Amino-2,4-di-(4-chlorophenyl)benzoic acid]
[1]
  inhibition at 50 µM: 13%
other
  melting point: 178 to 179 °C
[2]
  IC50: > 50 µM

## Cc1ccc(-c2cc(NC(=O)NC3CCCC3)cc(-c3ccccc3)c2)cc1 [Compound 4b, 1-([4-Methyl-m-terphenyl]-5′-yl)-3-cyclopentyl urea]
[1]
  IC50: > 50 µM
other
  melting point: 217 to 218 °C
[2]
  IC50: > 50 µM

## COc1ccc(-c2cc(NC(=O)NC3CCCC3)cc(-c3ccccc3)c2)cc1 [Compound 4e, 1-([4-Methoxy-m-terphenyl]-5′-yl)-3-cyclopentylurea]
[1]
  IC50: > 50 µM
other
  melting point: 208 to 209 °C
[2]
  IC50: > 50 µM

## CCOC(=O)c1c(NC(=O)NC2CCCCC2)cc(-c2ccccc2)cc1-c1ccc(OC)cc1 [Compound 5, Ethyl 6-(3′-cyclohexylureido)-2-(4-methoxyphenyl)-4-phenylbenzoate]
[1]
  IC50: > 50 µM
[2]
  IC50: > 50 µM

## Nc1cc(-c2ccc(Br)cc2)cc(-c2ccc(Br)cc2)c1 [Compound 3f, 4,4″-Dibromo-5′-amino-m-terphenyl]
[1]
  IC50: > 50 µM
other
  melting point: 163 to 164 °C
[2]
  IC50: > 50 µM

## Nc1cc(-c2ccc(Br)cc2)cc(-c2ccc(Br)cc2)c1C(=O)O [Compound 2f, 6-Amino-2,4-di-(4-bromophenyl)benzoic acid]
[1]
  inhibition at 50 µM: 12%
other
  melting point: 239 to 240 °C
[2]; ovine COX-1, 50 µM
  inhibition at 50 µM: 8%

## O=C(Nc1cc(-c2ccc(Br)cc2)cc(-c2ccc(Br)cc2)c1)NC1CCCC1 [Compound 4f, 1-([4,4″-Dibromo-m-terphenyl]-5′-yl)-3-cyclopentylurea]
[1]
  inhibition at 50 µM: 30%
other
  melting point: 222 to 223 °C
[2]; ovine COX-1, 50 µM
  inhibition at 50 µM: 10%
[2]; ovine COX-1 vs human COX-2
  COX-1 selectivity (in words): did not show COX-1 selectivity

## COc1ccc(-c2cc(N)c(C(=O)O)c(-c3ccccc3)c2)cc1 [Compound 2e, 6-Amino-2-phenyl-4-(4-methoxyphenyl)benzoic acid]
[1]
  inhibition at 50 µM: 20%
[2]
  IC50: > 50 µM
